US20260115331A1, “PET IMAGING OF BACTERIAL INFECTION WITH A PET PROBE” (Mayo Foundation for Medical Education and Research, priority 2022, published 2026)

Experiment: PET image analysis (SUV) of inflamed tibia in foreign body inflammation rat model
Type: in vivo, rats
Conditions: each time point up to 120 minutes (FIG. 27)
Experimental: The PET probe [^68Ga]Ga-H3P2O8 was evaluated in methicillin-resistant S. aureus (MRSA) foreign-body osteomyelitis in the left tibia with a stainless steel Kirschner wire (K-wire) implant in male Wister rats, following a previously established protocol [Ref. 17]. Briefly, a 1 cm incision was made on the medial tibia and the bone exposed. A 1.5 mm hole was drilled, 0.01 mL of arachidonic acid (a sclerosing agent) and 0.05 mL of a suspension containing MRSA DRL-6169 at 10^8 cfu/mL was injected into the bone. A 5 mm threaded stainless-steel K-wire was inserted. The hole was closed with dental gypsum and the site closed. After implantation, the muscle and fascia were closed with 3-0 vicryl using simple interrupted sutures. The skin was closed with sterile wound clips and VetBond. The wound was sprayed with Aluspray and Chew Guard. After 7 days of implantation of wire, the animal was put on iron-deficient diet for 7 days and on the day of imaging, the animals were fasted for 4 hours prior to the injection of the PET probe. [^68Ga]Ga-H3P2O8 (32.81±6.28 MBq, n=18) were injected into the rat model via tail vein injection. The rat model was either a normal rat model or an osteomyelitis foreign body rat model or an inflamed foreign body rat model. PET/CT images were acquired at 15 minutes, 30 minutes, 60 minutes, and 120 minutes post-injection using Siemens Inveon MicroPET/CT Scanner (see FIGS. 17, 18, and Table 2).
To assess the preferential uptake of novel [^68Ga]Ga-H3P2O8 PET probe in infection as compared to inflammation, the same surgery and imaging was performed but omitted the MRSA. […] The probe [^68Ga]Ga-H3P2O8 was also successfully used to detect thigh infection caused by E coli in a mouse model.
To further investigate the selectivity of [^68Ga]Ga-H3P2O8 for imaging infection over inflammation, this novel probe was compared to other PET imaging probes, [^68Ga]Ga-Citrate and [^18F]FDG in an inflammation model. In a side-by-side study, all three probes were used to image inflammation (i.e., an inflamed tibia) in an osteomyelitis foreign body rat model.

Row | SMILES | difference in mean SUV between the probes in inflamed tibia
1 | OC[C@H]1OC(O)[C@H]([18F])[C@@H](O)[C@@H]1O (some centres unmarked) [[^18F]FDG, [^18F]Fluorodeoxyglucose] | no significant difference
2 | O=C([O-])CC(O)(CC(=O)[O-])C(=O)[O-].[Ga+3] [[^68Ga]Ga-Citrate] | no significant difference
